Measured values published in paper PMC5507466, “The ubiquitin-conjugating enzyme CDC34 is essential for cytokinesis in contrast to putative subunits of a SCF complex in Trypanosoma brucei” (PLoS Neglected Tropical Diseases, 2017).

Target: T1, TbCDC34 (Trypanosoma brucei, UniProt Q382B7)
T1 construct: gene Tb11.01.5790; N-terminal 6His-tagged, expressed in E. coli BL21(DE3)+pLysE, Ni-NTA purified; catalytic Cys84, Ser86
T1 sequence (Q382B7 1-247): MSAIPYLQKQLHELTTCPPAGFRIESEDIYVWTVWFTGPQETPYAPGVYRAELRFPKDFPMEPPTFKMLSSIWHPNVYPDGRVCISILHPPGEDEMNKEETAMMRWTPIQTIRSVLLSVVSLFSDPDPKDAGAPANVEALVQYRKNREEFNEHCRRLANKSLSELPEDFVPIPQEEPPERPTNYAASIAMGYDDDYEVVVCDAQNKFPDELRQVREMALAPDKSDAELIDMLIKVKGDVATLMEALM
Test: in vitro gel-based ubiquitination assay (anti-ubiquitin and anti-His western blot)
Assay type: biochemical
Settings: 300 μM CC0651 vs DMSO; 10 μM E2, 100 nM human E1, 5 μM human ubiquitin; ATP; 37 °C, 0-4 h

COCC(=O)N[C@@H](Cc1ccc(-c2cc(Cl)cc(Cl)c2)cc1)[C@H](O)[C@@H](O)C(=O)O [CC0651]
in vitro gel-based ubiquitination assay (anti-ubiquitin and anti-His western blo): addition of CC0651 to the reaction had modest, but detectable effect on TbCDC34 activity
